pIC50: −log10 of the molar value.
molecular target: T1, prostaglandin E2 type 2 (EP2) receptors (Homo sapiens, UniProt P43116); assay: Assay for Binding to Prostaglandin E2 Receptors (3H-prostaglandin E2 displacement, membranes of transfected 293S cells); settings: concentration displacing 50% of specifically bound 3H-prostaglandin E2, 1 hour at 25° C.
T1 construct: These full length receptors are used to prepare 293S cells expressing the EP1, EP2, EP3 and EP4 receptors; expressed in transfected cells; membranes
T1 sequence (P43116 whole entry): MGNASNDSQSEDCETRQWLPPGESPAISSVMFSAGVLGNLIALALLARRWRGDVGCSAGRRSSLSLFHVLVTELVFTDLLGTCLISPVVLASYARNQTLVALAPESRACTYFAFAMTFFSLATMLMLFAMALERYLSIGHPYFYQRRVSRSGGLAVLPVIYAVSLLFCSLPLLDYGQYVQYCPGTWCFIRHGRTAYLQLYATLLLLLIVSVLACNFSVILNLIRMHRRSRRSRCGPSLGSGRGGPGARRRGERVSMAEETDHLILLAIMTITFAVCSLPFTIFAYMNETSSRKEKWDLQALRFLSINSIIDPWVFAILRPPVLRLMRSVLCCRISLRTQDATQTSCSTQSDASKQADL

pIC50 | Compound
7.02 | CCCCc1ccc(CN(Cc2cccc(CC(=O)O)c2)S(=O)(=O)c2cccs2)cc1 [Example 9b, (3-(((4-Butyl-benzyl)-(thiophene-2-sulfonyl)-amino)-methyl)-phenyl)-acetic acid]
6.31 | CCCCc1ccc(CN(Cc2cccc(CC(=O)O)c2)S(=O)(=O)c2ccc(NC(C)=O)cc2)cc1 [Example 9c, (3-(((4-Acetylamino-benzenesulfonyl)-(4-butyl-benzyl)-amino)-methyl)-phenyl)-acetic acid]
6.69 | CCCCc1ccc(CN(Cc2cccc(CC(=O)O)c2)S(=O)(=O)c2cccc3nonc23)cc1 [Example 9d, (3-(((Benzo[1,2,5]oxadiazole-4-sulfonyl)-(4-butyl-benzyl)-amino)-methyl)-phenyl)-acetic acid]

Compound | pIC50
(3-(((4-Butyl-benzyl)-(pyridine-3-sulfonyl)-amino)-methyl)-phenyl)-acetic acid [Example 9] | 7.77
